Counter-ions that a name gives are not always drawn. Like-named read-outs stand apart in the source and are kept apart here.

What all share (type): physicochemical
A short description of data set [1]: solubility in SGF, FeSSIF, FaSSIF and water.
Data set [2] can be described thus: dynamic vapor sorption (DVS) analysis. How it is done:
Dynamic vapor sorption analysis (DVS) was performed on a DVS Intrinsic PLUS (SMS, UK). The sample was placed into a tared sample chamber and automatically weighed. The sample was dried at 40° C. until the dm/dt was less than 0.002% and cooled to 25° C. The instrument parameters were as follows: step time (min)=60 min; sample temperature=25 C; cycle=full cycle; adsorption (% RH)=0, 10, 20, 30, 40, 50, 60, 70, 80, 90; desorption (% RH)=80, 70, 60, 50, 40, 30, 20, 10, 0; saved data rate=5 sec; total flow rate=200 sccm; post experimental flow rate=200 sccm.

Data set [3] is described as follows: solid form chemical and physical stability.
Where [4] appears, read: about 0% to about 80% RH at 25° C.
Where [5] appears, read: about 0% to about 90% RH at 25° C.

Consider `[2H]C([2H])([2H])CC(=O)c1cnc(NC(=O)C2CC2)cc1Nc1cccc(-c2ncn(C([2H])([2H])[2H])n2)c1OC` [Form 1-1, N-(4-((2-methoxy-3-(1-(methyl-d3)-1H-1,2,4-triazol-3-yl)phenyl)amino)-5-(propanoyl-3,3,3-d3)pyridin-2-yl) cyclopropanecarboxamide, methanesulfonic acid salt], for which the “salt dissociation in solubility media” value in data set [1] (FaSSIF, FeSSIF and water) is listed as “dissociate to the free base”. Also, the solubility is 1 to 2 µg/mL in data set [1] (FaSSIF, read-out: solubility in FaSSIF); 20 to 30 µg/mL in data set [1] (FeSSIF, read-out: solubility in FeSSIF); more than 4100 µg/mL in data set [1] (SGF, simulated gastric fluid, read-out: solubility in SGF). Also, the hygroscopicity result in data set [2] is recorded as “only slightly hygroscopic”. The “DVS reversable total mass change” value is recorded as “about 0.6 wt. %” in data set [2] (setting [4]) and “about 1.3 wt. %” in data set [2] (setting [5]). For the same molecule, the “form change after DVS analysis” value in data set [2] was “No form change”. The “time chemically and physically stable in the solid form” value in data set [3] (40° C./75% RH) and in data set [3] (60° C.) was “at least 10 days” throughout.

Regarding `[2H]C([2H])([2H])CC(=O)c1cnc(NC(=O)C2CC2)cc1Nc1cccc(-c2ncn(C([2H])([2H])[2H])n2)c1OC` [Form 5-2, N-(4-((2-methoxy-3-(1-(methyl-d3)-1H-1,2,4-triazol-3-yl)phenyl)amino)-5-(propanoyl-3,3,3-d3)pyridin-2-yl) cyclopropanecarboxamide, sulfuric acid salt], the results for the “DVS reversable total mass change” value in data set [2] (setting [4]) and in data set [2] (setting [5]) were “about 0.9 wt. %” and “about 1.4 wt. %”, respectively. For the same molecule, the “form change after DVS analysis” value in data set [2] is “No form change”.

As for `[2H]C([2H])([2H])CC(=O)c1cnc(NC(=O)C2CC2)cc1Nc1cccc(-c2ncn(C([2H])([2H])[2H])n2)c1OC` [Form 6, N-(4-((2-methoxy-3-(1-(methyl-d3)-1H-1,2,4-triazol-3-yl)phenyl)amino)-5-(propanoyl-3,3,3-d3)pyridin-2-yl) cyclopropanecarboxamide, p-toluenesulfonic acid salt], the figures for the “DVS reversable total mass change” value in data set [2] (setting [4]) and in data set [2] (setting [5]) were “about 0.6 wt. %” and “about 0.7 wt. %”, respectively. For the same molecule, the “form change after DVS analysis” value in data set [2] is “No form change”.

The term solubility denotes the concentration that dissolves in the medium under given conditions.

These data come from patent US20250376459A1, “CRYSTALLINE FORMS OF A TYK2 INHIBITOR AND USES THEREOF” (Alumis Inc., priority 2022, published 2025).
